Peptide text beside a SMILES is read from it.
Key:
ADAM10/AP2 complex [1] = target: T1, ADAM10/AP2 complex (Rattus norvegicus, UniProt P62944); test: co-immunoprecipitation of ADAM10 with AP2 subunits in primary cultures of hippocampal neurons; format: cell-based
T1 construct: endogenous in cells; host or cells: primary hippocampal neurons of rat embryos, DIV14
Description: The primary cultures were prepared from hippocampi of rat embryos as described in [20]. The cultures were grown in media containing Neurobasal (Life Technologies), B27 2% (Life Technologies), GlutaMAX 1% (Life Technologies) and Penicillin/Streptomycin 1% (Pen/Strep; Life Technologies), a 37 °C with 95% humidity and 5% CO2 for 14 days. The cells were treated by diluting the peptides in the complete growth medium, at a final concentration of 1 µM. The treatment was performed for 30 minutes at 37°C, then the neurons were lysed.
(§1) For the co-immunoprecipitation experiments, aliquots of 40-100 µg of lysate were incubated at 4°C in RIA 1X buffer (NaCl 200 mM, EDTA 10 mM, Na2HPO4 10 mM, Nonidet P-40, 0.5% and 0.1% SDS) in a final volume of 150 µl with 1-2 µg of antibody. The following day the protein complex A/G (Santa Cruz Biotechnology) was added, conjugated with agarose marbles, and the incubation was continued for 2 hours. After three washes with RIA buffer the samples were loaded onto SDS-PAGE and analysed through Western Blot.
(§2) The quantization of the Western Blot analyses was performed through an image analysis program (ImageLab -BioRad). The levels of proteins were expressed as optical density (OD) related to the different measurements and were normalized on respective tubulin levels.
After 30 minutes, the cells were processed and the cell lysate was used for performing the co-IP analyses.

[2] = tested on: T2, ADAM10/AP2 complex (Rattus norvegicus); test: co-immunoprecipitation of ADAM10 with AP2 (α-adaptin) in acute hippocampal slices; format: cell-based; conditions: 10 µM, 30 min
T2 construct: endogenous in cells; host or cells: primary hippocampal neurons of rat embryos, DIV14
T2 sequence (P18484 whole entry): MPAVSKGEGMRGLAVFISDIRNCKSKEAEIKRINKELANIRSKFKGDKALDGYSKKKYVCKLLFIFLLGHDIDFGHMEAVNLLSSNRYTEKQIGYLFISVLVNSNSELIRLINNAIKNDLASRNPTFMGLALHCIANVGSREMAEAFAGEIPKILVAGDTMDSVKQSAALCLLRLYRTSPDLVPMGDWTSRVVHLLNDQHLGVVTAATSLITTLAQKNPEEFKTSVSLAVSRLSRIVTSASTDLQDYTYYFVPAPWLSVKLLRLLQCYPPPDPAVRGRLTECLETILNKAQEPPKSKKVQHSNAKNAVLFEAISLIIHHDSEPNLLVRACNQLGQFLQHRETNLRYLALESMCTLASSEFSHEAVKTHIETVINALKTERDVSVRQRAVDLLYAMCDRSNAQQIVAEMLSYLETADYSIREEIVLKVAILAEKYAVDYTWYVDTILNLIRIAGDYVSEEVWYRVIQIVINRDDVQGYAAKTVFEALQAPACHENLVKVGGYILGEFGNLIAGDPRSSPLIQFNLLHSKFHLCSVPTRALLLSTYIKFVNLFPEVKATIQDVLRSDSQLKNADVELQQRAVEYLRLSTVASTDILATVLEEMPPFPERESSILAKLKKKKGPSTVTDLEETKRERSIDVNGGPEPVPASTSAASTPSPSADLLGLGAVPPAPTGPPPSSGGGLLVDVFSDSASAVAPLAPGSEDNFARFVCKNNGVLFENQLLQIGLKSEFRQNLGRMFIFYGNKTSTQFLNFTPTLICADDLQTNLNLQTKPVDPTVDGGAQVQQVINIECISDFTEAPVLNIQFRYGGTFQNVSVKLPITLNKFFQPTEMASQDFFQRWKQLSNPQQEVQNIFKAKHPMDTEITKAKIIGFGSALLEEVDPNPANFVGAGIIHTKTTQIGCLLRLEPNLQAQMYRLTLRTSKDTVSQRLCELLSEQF
T2 sequence (P62744 whole entry, further chain): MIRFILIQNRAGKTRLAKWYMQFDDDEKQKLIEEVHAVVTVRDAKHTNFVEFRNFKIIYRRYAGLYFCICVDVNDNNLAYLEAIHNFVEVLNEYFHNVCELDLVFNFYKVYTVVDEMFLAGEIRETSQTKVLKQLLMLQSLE
T2 sequence (P84092 whole entry, further chain): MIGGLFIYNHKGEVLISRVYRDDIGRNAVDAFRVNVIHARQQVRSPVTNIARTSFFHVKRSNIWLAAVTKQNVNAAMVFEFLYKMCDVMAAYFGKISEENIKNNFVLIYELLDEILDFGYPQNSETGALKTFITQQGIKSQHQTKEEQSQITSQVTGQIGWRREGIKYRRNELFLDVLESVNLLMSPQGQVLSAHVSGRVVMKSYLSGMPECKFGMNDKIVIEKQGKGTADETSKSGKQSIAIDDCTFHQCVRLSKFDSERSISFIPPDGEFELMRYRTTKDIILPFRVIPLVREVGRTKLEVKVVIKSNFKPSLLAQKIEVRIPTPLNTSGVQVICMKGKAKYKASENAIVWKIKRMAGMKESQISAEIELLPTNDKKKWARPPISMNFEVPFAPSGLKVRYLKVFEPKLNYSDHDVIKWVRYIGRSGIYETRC
T2 sequence (P62944 whole entry, further chain): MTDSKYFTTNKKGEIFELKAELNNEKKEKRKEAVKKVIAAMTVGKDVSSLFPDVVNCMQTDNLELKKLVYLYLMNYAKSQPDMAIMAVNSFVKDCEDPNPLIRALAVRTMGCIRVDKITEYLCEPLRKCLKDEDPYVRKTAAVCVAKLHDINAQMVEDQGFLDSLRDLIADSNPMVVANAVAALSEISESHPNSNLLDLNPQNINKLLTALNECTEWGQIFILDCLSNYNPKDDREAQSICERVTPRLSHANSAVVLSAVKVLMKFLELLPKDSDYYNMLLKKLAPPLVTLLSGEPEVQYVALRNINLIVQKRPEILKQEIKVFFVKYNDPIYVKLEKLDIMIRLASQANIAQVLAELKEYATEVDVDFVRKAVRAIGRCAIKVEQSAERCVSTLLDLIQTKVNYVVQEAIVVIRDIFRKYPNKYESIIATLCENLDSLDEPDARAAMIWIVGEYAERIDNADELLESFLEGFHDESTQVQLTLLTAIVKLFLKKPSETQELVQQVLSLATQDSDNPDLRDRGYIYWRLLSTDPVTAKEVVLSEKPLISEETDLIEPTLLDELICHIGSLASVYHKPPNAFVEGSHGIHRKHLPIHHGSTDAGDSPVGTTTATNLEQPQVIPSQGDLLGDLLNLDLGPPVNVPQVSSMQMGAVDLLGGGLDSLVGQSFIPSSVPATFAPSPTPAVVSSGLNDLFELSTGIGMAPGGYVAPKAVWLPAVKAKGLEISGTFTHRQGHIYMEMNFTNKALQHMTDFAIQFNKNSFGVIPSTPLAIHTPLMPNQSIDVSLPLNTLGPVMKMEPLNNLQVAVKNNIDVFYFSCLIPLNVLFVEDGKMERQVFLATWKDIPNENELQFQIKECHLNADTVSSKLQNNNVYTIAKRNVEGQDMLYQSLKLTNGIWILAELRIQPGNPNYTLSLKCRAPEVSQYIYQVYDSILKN
Description: (§3) The acute hippocampal slices were obtained from rat brain. After carefully removing the meninges, the hippocampus was isolated and dissected using the McIlwain tissue chopper. The hippocampal slices were then transferred into supports containing Krebs buffer, in the presence of a constant flow of 95% O2 and 5% CO2 5% (v/v). The acute slices were kept for 45 min at ambient temperature before proceeding with treatment with the peptide.
(§4) For the treatments of the acute hippocampal slices, all the peptides were diluted in Krebs buffer at a concentration of 10µM. The treatments were performed for 30 minutes and subsequently the sample was immediately frozen.
as §1, §2
(§5) The samples were then processed, and the total homogenate was used to evaluate the interaction levels between ADAM10 and the complex AP2. The co-immunoprecipitation experiment (co-IP), performed using an anti-ADAM10 antibody, made it possible to verify that two of the three peptides (PEP2 (SEQ ID NO:2) and PEP3 (SEQ ID NO:1)) were able to interfere with the interaction between ADAM10 and α-adaptin, one of the subunits that constitutes the complex AP2 (Figure 1A).

ADAM10/AP2 complex [3] = target: T1, ADAM10/AP2 complex; test: as above; format: cell-based; conditions: 10 µM, 30 minutes
Description: as §3, §4, §1, §2, §5

[4] = blood-brain barrier crossing, anti-TAT immunohistochemistry on coronal brain sections; format: in vivo; conditions: C57BL/6 mice, intraperitoneal injection 3 nmoles/g, 24 hours
Description: For the immunohistochemistry analyses, mice treated with the peptide were anaesthetized deeply and subjected to transcardial perfusion with 4% paraformaldehyde (prepared in PBS, pH 7.2-7.4), through the use of a peristaltic pump. The fixing liquid was inserted into the blood circulation through the left ventricle and after 10 minutes the brain was isolated. The sample was then post-fixed for 1 hour and 30 minutes at 4°C, then washed with PBS 1X and placed o/n in a 30% sucrose solution. The following day the sample was washed again with PBS 1X cut with the vibratome obtaining coronal sections of 50µm. Then the sections were stained through free-floating immunofluorescence technique. The fluorescence images were acquired using the Zeiss Confocal LSM510 Meta system with 63x objective at a resolution of 1024x1024 pixels. […]
The coronal sections were incubated with a specific antibody for the identification of the MAP2 neurons, and an antibody able to recognize the TAT sequence of HIV-1 present in the CPPs. As shown by the arrows in Figure 6, the presence of a specific signal of the anti-TAT antibody can be identified, which can only be detected in the coronal sections of brain of animals treated with CPPs. […] In the brain of animals only treated with saline solution (Figure 6, panel A), such signal cannot be detected.

[5] = primary hippocampal neurons DIV 14, 1 µM, 30 minutes

T1 sequence (P18484 whole entry): as the sequence (P18484 whole entry) above
T1 sequence (P62744 whole entry, further chain): as the sequence (P62744 whole entry, further chain) above
T1 sequence (P84092 whole entry, further chain): as the sequence (P84092 whole entry, further chain) above
T1 sequence (P62944 whole entry): as the sequence (P62944 whole entry, further chain) above

CC(C)C[C@H](NC(=O)[C@H](CCCNC(=N)N)NC(=O)[C@@H]1CCCN1C(=O)[C@H](CCCNC(=N)N)NC(=O)[C@H](CCC(N)=O)NC(=O)[C@H](CCCNC(=N)N)NC(=O)[C@@H]1CCCN1C(=O)[C@@H]1CCCN1C(=O)[C@H](CC(C)C)NC(=O)CNC(=O)[C@H](CO)NC(=O)CNC(=O)CNC(=O)[C@H](CCCNC(=N)N)NC(=O)[C@H](CCCNC(=N)N)NC(=O)[C@H](CCCNC(=N)N)NC(=O)[C@H](CCC(N)=O)NC(=O)[C@H](CCCNC(=N)N)NC(=O)[C@H](CCCNC(=N)N)NC(=O)[C@H](CCCCN)NC(=O)[C@H](CCCCN)NC(=O)[C@H](CCCNC(=N)N)NC(=O)CNC(=O)[C@@H](N)Cc1ccc(O)cc1)C(=O)O [PEP2] (H-YGRKKRRQRRRGGSGLPPRQRPRL-OH)
PEP/inPEP OD, ADAM10/AP2 complex, µ2 (ADAM10/AP2 complex [1]; primary cultures of neurons, 1µM, 30 min): 52.01 ± 3.77% | reduction in the levels of interaction between ADAM10 and the complex AP2, subunit µ2 (ADAM10/AP2 complex [1]; [5]): 48% | reduction in the levels of interaction between ADAM10 and the complex AP2, subunit α-adaptin (ADAM10/AP2 complex [1]; [5]): 66% | PEP/inPEP ratio of optical density (OD), ADAM10/AP2 complex (α-adaptin) [2]: 41.60 ± 23.86% | reduction of the interaction between ADAM10 and α-adaptin (ADAM10/AP2 complex [3]): 58.4% | capacity to cross the blood-brain barrier (BBB) [4]: can cross the BBB and penetrate into the neuron cells

Source: patent EP3727588B1, “ACTIVATOR PEPTIDES OF THE ENZYME ADAM 10 AND RELATED USES IN THE TREATMENT OF ALZHEIMER'S DISEASE” (UNIVERSITA' DEGLI STUDI DI MILANO, priority 2017, dated 2019)
